Laboratory results taken from ChEMBL document CHEMBL1146905, “Synthesis and evaluation of phenoxy acetic acid derivatives as [corrected] anti-mycobacterial agents” (2006).
Converted amounts (≈) assume the structure as drawn.

Key:
Assay type in all cases: functional
[1] = system: Mycobacterium tuberculosis; test: Antimycobacterial activity against Mycobacterium tuberculosis H37Rv by BACTEC-460 radiometric assay above 6.25 ug/ml
[2] = system: Mycobacterium tuberculosis; test: Antimycobacterial activity against Mycobacterium tuberculosis H37Rv by BACTEC-460 radiometric assay
[3] = system: Mycobacterium tuberculosis; test: Antimycobacterial activity against Mycobacterium tuberculosis H37Rv by BACTEC-460 radiometric assay at 6.25 ug/ml

SMILES | Inhibition [1] | MIC [2] | inhibition at 6.25 µg/mL [3]
COc1cc(C2=NN(C(=O)c3ccc([N+](=O)[O-])cc3)C(c3ccc(O)cc3)C2)c(C)cc1OCC(=O)O (stereo not drawn) | 74% | 6.25 µg/mL (≈ 12.4 µM) | 
COc1cc(C2=NN(C(=O)COc3ccc4ccccc4c3)C3CCCC23)c(C)cc1OCC(=O)O (stereo not drawn) | 91% | 6.12 µg/mL (≈ 12.5 µM) | 
COc1cc(C2=NN(C(=O)Cc3ccccc3)C3CCCC23)c(C)cc1OCC(=O)O (stereo not drawn) | 21% | > 6.25 µg/mL | 
COc1cc(C2=NN(C(=O)COc3ccccc3)C(Cc3ccccc3)C2)c(C)cc1OCC(=O)O (stereo not drawn) |  | > 6.25 µg/mL | 94%
COc1cc(C2=NN(C(=O)COc3ccc4ccccc4c3)C(Cc3ccccc3)C2)c(C)cc1OCC(=O)O (stereo not drawn) |  | 0.22 µg/mL (≈ 0.408 µM) | 95%
COc1cc(C2=NN(C(=O)c3ccc([N+](=O)[O-])cc3)C(Cc3ccccc3)C2)c(C)cc1OCC(=O)O (stereo not drawn) | 64% | > 6.25 µg/mL | 
COc1cc(C2=NN(C(=O)COc3ccc4ccccc4c3)C(c3ccc(O)cc3)C2)c(C)cc1OCC(=O)O (stereo not drawn) |  | 0.1 µg/mL (≈ 0.185 µM) | 99%
COc1cc(C2=NN(C(=O)c3ccccc3)C3CCCC23)c(C)cc1OCC(=O)O (stereo not drawn) | 24% | > 6.25 µg/mL | 
COc1cc(C2=NN(C(=O)COc3cccc4ccccc34)C(c3ccc(O)cc3)C2)c(C)cc1OCC(=O)O (stereo not drawn) | 61% | > 6.25 µg/mL | 
COc1cc(C2=NN(C(=O)c3ccc([N+](=O)[O-])cc3)C3CCCC23)c(C)cc1OCC(=O)O (stereo not drawn) | 26% | > 6.25 µg/mL | 
NNC(=O)c1ccncc1 [ISONIAZID] |  | 0.1 µg/mL (≈ 0.729 µM) | 96%
COc1cc(C2=NN(C(=O)c3ccccc3)C(Cc3ccccc3)C2)c(C)cc1OCC(=O)O (stereo not drawn) | 12% | > 6.25 µg/mL | 
COc1cc(C2=NN(C(=O)Cc3ccccc3)C(c3ccc(O)cc3)C2)c(C)cc1OCC(=O)O (stereo not drawn) | 28% | > 6.25 µg/mL | 
COc1cc(C2=NN(C(=O)COc3ccccc3)C(c3ccc(O)cc3)C2)c(C)cc1OCC(=O)O (stereo not drawn) |  | 0.1 µg/mL (≈ 0.204 µM) | 99%
COc1cc(C2=NN(C(=O)COc3cccc4ccccc34)C3CCCC23)c(C)cc1OCC(=O)O (stereo not drawn) | 54% | > 6.25 µg/mL | 
COc1cc(C2=NN(C(=O)Cc3ccccc3)C(Cc3ccccc3)C2)c(C)cc1OCC(=O)O (stereo not drawn) | 34% | > 6.25 µg/mL | 
COc1cc(C2=NN(C(=O)c3ccccc3)C(c3ccc(O)cc3)C2)c(C)cc1OCC(=O)O (stereo not drawn) | 72% | > 6.25 µg/mL | 
COc1cc(C2=NN(C(=O)COc3ccccc3)C3CCCC23)c(C)cc1OCC(=O)O (stereo not drawn) | 87% | > 6.25 µg/mL | 
COc1cc(C2=NN(C(=O)COc3cccc4ccccc34)C(Cc3ccccc3)C2)c(C)cc1OCC(=O)O (stereo not drawn) | 18% | > 6.25 µg/mL | 
